Experimental data published in patent US6509369B2, “Anti-inflammatory compounds” (Ortho-McNeil Pharmaceutical, Inc., priority 1997, dated 2003).

Columns and labels:
[1] = target: T1, human glucocorticoid receptor (hGR) (Homo sapiens, UniProt P04150); assay: human glucocorticoid receptor binding assay (displacement of 3(H) Triamcinolone acetonide)
T1 construct: made in house; host or cells: Sf21 insect cells infected with baculovirus hGR, OR IM9 lymphoblast cell line (endogenous hGR)
T1 sequence (P04150 1-777): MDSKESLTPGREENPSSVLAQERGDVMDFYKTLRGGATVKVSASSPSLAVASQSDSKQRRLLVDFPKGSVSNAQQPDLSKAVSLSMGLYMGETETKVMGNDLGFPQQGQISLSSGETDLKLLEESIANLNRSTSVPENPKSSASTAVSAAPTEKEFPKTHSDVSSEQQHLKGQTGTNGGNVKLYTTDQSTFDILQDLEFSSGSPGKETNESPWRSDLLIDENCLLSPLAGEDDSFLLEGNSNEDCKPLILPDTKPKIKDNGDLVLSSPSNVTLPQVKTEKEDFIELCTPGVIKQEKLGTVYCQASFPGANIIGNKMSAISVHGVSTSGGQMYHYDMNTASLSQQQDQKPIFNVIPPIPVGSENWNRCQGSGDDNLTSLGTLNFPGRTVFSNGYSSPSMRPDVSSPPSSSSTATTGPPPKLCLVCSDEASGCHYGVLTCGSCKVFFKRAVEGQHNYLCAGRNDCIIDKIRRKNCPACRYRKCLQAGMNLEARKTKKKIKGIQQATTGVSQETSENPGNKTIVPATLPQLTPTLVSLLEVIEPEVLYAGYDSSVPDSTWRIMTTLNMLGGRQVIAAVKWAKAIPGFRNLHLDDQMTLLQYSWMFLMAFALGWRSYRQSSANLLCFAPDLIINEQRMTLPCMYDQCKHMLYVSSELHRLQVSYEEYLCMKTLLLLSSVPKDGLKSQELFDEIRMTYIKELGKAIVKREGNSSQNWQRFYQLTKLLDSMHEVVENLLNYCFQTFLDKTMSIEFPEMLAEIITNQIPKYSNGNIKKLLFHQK
Protocol: A human glucocorticoid receptor binding assay was carried out to determine the extent to which the compounds of this invention have the ability to bind to human glucocorticoid receptors. This binding ability may be indicative of the antiinflammatory activity of the compound. The test was carried out as follows.
Human glucocorticoid receptors were prepared from either insect cells (Sf21) infected with baculovirus hGR or from a lymphoblast cell line which expresses high levels of endogenous hGR (IM9). The receptor binding reactions, with or without test compounds, were set up in 96-well microtiter plates which were previously siliconized with SIGMACOTE™, a chlorinated organopolysiloxane in heptane. The binding components, 3(H) Triamcinolone acetonide (TAA), glycerol/molybdate-containing buffer and unlabeled compounds were added to the wells using a combination of BIOMEK laboratory automation system and repeat pipettes. After four hours of incubation, the samples were precipitated with polyethylene glycol and filtered through Whatman GF/F paper using a TOMTEK cell harvester. The filter mate with 96 samples were bound to a solid-phase scintillant and directly counted in a BETAPLATE counter. […] The activity of test compounds to displace 3(H) TAA binding to hGR is also expressed as percent inhibition at 1 μM.

[2] = system: human progesterone receptor (hPR); assay: human progesterone receptor binding assay (displacement of 3(H) R5020 Promegestone)
Protocol: A human progesterone receptor binding assay was performed in order to determine selectivity of the compounds, as follows. Human progesterone receptors were prepared from either insect cells (SF21) infected with baculovirus hPR A, or from a breast cancer cell line, T47D, which expresses high levels of endogenous hPR. The receptor binding reactions, with or without test compounds, were set up in 96-well microtiter plates which were previously siliconized with SIGMACOTE. The binding components, 3(H) R5020 Promegestone, a high affinity ligand for the progesterone receptors, glycerol/molybdate-containing buffer and unlabeled compounds were added to the wells using a combination of BIOMEK laboratory automation system and repeat pipettes. After overnight incubation, the samples were precipitated with polyethylene glycol and filtered through Whatman GF/F paper using a TOMTEK cell harvester. The filter mate with 96 samples were bound to a solid-phase scintillant and directly counted in the BETAPLATE counter. Only those compounds that were active in the human glucocorticoid receptor assay set forth in Example 30 were used for progesterone receptor binding to determine cross-reactivity profiles, if any. The activity of test compounds to displace 3(H) R5020 binding to hPR is expressed as percent inhibition at the two concentrations, 10^−6 and 10^−5 Molar.

Compound | IC50 [1] | hPR % inh 10 μM [2]
O=C(Cc1ccccc1Cl)NCC(c1ccccc1)C(c1ccccc1)c1ccccc1 (stereo not shown) [Compound 2] | 134 nM | −23%
O=C(Cc1ccc(Cl)cc1)NCC(c1ccccc1)C(c1ccccc1)c1ccccc1 (stereo not shown) [Compound 3] | 480 nM | 4%
Cc1ccc(CC(=O)NCC(c2ccccc2)C(c2ccccc2)c2ccccc2)cc1 (stereo not shown) [Compound 4] | 528 nM | 12%
COc1ccc(CC(=O)NCC(c2ccccc2)C(c2ccccc2)c2ccccc2)cc1OC (stereo not shown) [Compound 7] | 910 nM | 11.6%
O=C(Cc1c(Cl)cccc1Cl)NCC(c1ccccc1)C(c1ccccc1)c1ccccc1 (stereo not shown) [Compound 8] | 340 nM | 3%
O=C(Cc1ccccc1C(F)(F)F)NCC(c1ccccc1)C(c1ccccc1)c1ccccc1 (stereo not shown) [Compound 10] | 780 nM | 15%
O=C(Cc1cccc(C(F)(F)F)c1)NCC(c1ccccc1)C(c1ccccc1)c1ccccc1 (stereo not shown) [Compound 11] | 830 nM | 20%
O=C(Cc1ccc(C(F)(F)F)cc1)NCC(c1ccccc1)C(c1ccccc1)c1ccccc1 (stereo not shown) [Compound 12] | 1500 nM | 15%
O=C(Cc1ccccc1)NCC(c1ccc(Cl)cc1)C(c1ccccc1)c1ccccc1 (stereo not shown) [Compound 14] | 72 nM | 18%
O=C(Cc1ccccc1)NCC(c1ccccc1)C(c1ccc(F)cc1)c1ccc(F)cc1 (stereo not shown) [Compound 18, N-[3,3-bis-(4-fluorophenyl)-2-phenylpropyl]-2-phenylacetamide] | 610 nM | 14.1%
O=C(CCc1ccccc1)NCC(c1ccccc1)C(c1ccccc1)c1ccccc1 (stereo not shown) [Compound 19] | 141 nM | 24%
COc1ccccc1CCC(=O)NCC(c1ccccc1)C(c1ccccc1)c1ccccc1 (stereo not shown) [Compound 20] | 58 nM | 9%
O=C(CCCc1ccccc1)NCC(c1ccccc1)C(c1ccccc1)c1ccccc1 (stereo not shown) [Compound 24] | 670 nM | 10%
O=C(Cc1cccs1)NCC(c1ccc(Cl)cc1)C(c1ccccc1)c1ccccc1 (stereo not shown) [Compound 34] | 21 nM | 17%
O=C(Cc1ccsc1)NCC(c1ccccc1)C(c1ccccc1)c1ccccc1 (stereo not shown) [Compound 36] | 25 nM | 22%
O=C(CCCc1cccs1)NCC(c1ccccc1)C(c1ccccc1)c1ccccc1 (stereo not shown) [Compound 37] | 500 nM | 4%
O=S(=O)(NCC(c1ccccc1)C(c1ccccc1)c1ccccc1)c1cccs1 (stereo not shown) [Compound 40] | 151 nM | 22%
O=C(NCC(c1ccccc1)C(c1ccccc1)c1ccccc1)c1ccsc1 (stereo not shown) [Compound 42] | 68 nM | 18%
O=C(NCC(c1ccccc1)C(c1ccccc1)c1ccccc1)c1cccs1 (stereo not shown) [Compound 45] | 31 nM | 5%
O=C(Cc1c[nH]c2ccccc12)NCC(c1ccccc1)C(c1ccccc1)c1ccccc1 (stereo not shown) [Compound 47] | 416 nM | 17%
O=C(CCc1c[nH]c2ccccc12)NCC(c1ccccc1)C(c1ccccc1)c1ccccc1 (stereo not shown) [Compound 48] | 605 nM | 19%
O=C(Cc1ccccn1)NCC(c1ccccc1)C(c1ccccc1)c1ccccc1 (stereo not shown) [Compound 49] | 200 nM | 11%
O=C(Cc1ccccc1)NCC(c1ccccc1)C1c2ccccc2-c2ccccc21 (stereo not shown) [Compound 66] | 888 nM | 18%
O=C(Cc1cccs1)NCC(c1ccccc1)C1c2ccccc2-c2ccccc21 (stereo not shown) [Compound 71] | 820 nM | 16%
O=C(Cc1ccccc1)NCC1(c2ccccc2)CC1(c1ccccc1)c1ccccc1 (stereo not shown) [Compound 78] | 1200 nM | 6%
COc1ccc(CC(=O)NCC2(c3ccccc3)CC2(c2ccccc2)c2ccccc2)cc1OC (stereo not shown) [Compound 79] | 1000 nM | 24.5%
